Assays:
H460 NSCLC [1] = test: H460 ectopic tumor model, TH-302 with carboplatin; type: in vivo, nude mice; settings: Carboplatin 20 mg/kg IV Q7Dx2; TH-302 100 mg/kg IP Q7Dx2; alone or combined
Protocol: (§1) Anti-tumor activity was evaluated by tumor growth inhibition (TGI) and tumor growth delay (TGD). Body weight change, gross and microscopic assessment of tissue changes, and hematologic assays served for toxicity assessment.
(§2) Testing in these models was conducted generally as follows. 1×10^6 H460 human non-small cell lung cancer or HT1080 human fibrosarcoma cells were implanted in the subcutaneous space of the right flank to obtain ectopic xenograft models. For the orthotopic pancreatic model, red-fluorescent protein (RFP) expressing MIA PaCa2 tumors were surgically implanted on the surface of the pancreas. The prostate metastatic model was created by the intraventricular injection of 3×10^6 luciferase-expressing PC-3 cells. […] API grade of TH-302 was used in all experiments while docetaxel, gemcitabine, doxorubicin and pemetrexed were purchased from commercial sources.
Inhibition of tumor growth after administration of TH-302 and carboplatin was greater than for either drug individually in an ectopic tumor model using H460 cells.

[2] = system: H460 human non-small cell lung cancer; test: H460 ectopic xenograft, TH-302/docetaxel dosing schedules; type: in vivo, nude mice; settings: single agent, TH-302 100 mg/kg ip once or Docetaxol 10 mg/kg iv once
Protocol: (§3) Anti-tumor activity was evaluated by tumor growth delay (TGD) and tumor growth inhibition (TGI). Body weight change, gross and microscopic assessment of tissue changes, and hematologic assays served for toxicity assessment. Testing in these models was conducted generally as follows. 1×10^6 (H460 human non-small cell lung cancer or HT1080 human fibrosarcoma cells) or 3×10^6 (PC-3 human prostate cancer cells) were implanted in the subcutaneous space of the right flank to obtain ectopic xenograft models. Randomization and dosing was initiated when tumors reached a certain size (100-150 mm^3). API grade of TH-302 was used in all experiments while docetaxel, gemcitabine, cisplatin, pemetrexed, and doxorubicin were purchased from commercial sources.
The H460 cells were prepared in 30% Matrigel and 70%. RPMI1640. Mice were anesthetized by isoflurane and were implanted subcutaneously with 1×10^6 cells (in 200 μl) at the flank position. We selected 110 mice bearing similar size tumors (˜100 mm^3) for the study. Mice bearing similar tumor size were randomly assigned into different groups. Treatment started on day 1 (7 days after tumor implantation) except as noted. […] Animals were observed daily and tumor measurements and body weights recorded twice weekly.

[3] = system: PC-3 human prostate cancer cells; test: PC-3 ectopic xenograft, TH-302/docetaxel dosing schedules; type: in vivo, nude mice; settings: single agent, TH-302 150 mg/kg ip once or Docetaxol 10 mg/kg iv once
[4] = system: HT1080 human fibrosarcoma cells; test: HT1080 ectopic xenograft, TH-302/doxorubicin dosing schedules; type: in vivo, nude mice; settings: single agent, TH-302 100 mg/kg ip 1/wkx2wks or Dox 4 mg/kg iv 1/wkx2wks
Protocol: as §3
(§4) The H460 cells were prepared in 30% Matrigel and 70%. RPMI1640. Mice were anesthetized by isoflurane and were implanted subcutaneously with 1×10^6 cells (in 200 μl) at the flank position. We selected 110 mice bearing similar size tumors (˜100 mm^3) for the study. Mice bearing similar tumor size were randomly assigned into different groups. Treatment started on day 1 (7 days after tumor implantation) except as noted. TH-302 was administered intraperitoneally (IP) at 150 mg/kg, and docetaxel was administered intravenously (IV) at 10 mg/kg. Animals were observed daily and tumor measurements and body weights recorded twice weekly.
In a study conducted substantially as described above except the cells implanted were HT1080 human fibrosarcoma cells and 1×10^6 cells were implanted and mice were randomized into separate groups when their […]

Calu6 NSCLC = test: Calu-6 ectopic tumor model, TH-302 with doxorubicin; type: in vivo, nude mice; settings: Dox 4 mg/kg IV Q7Dx2; TH-302 50 mg/kg IP QDx5/wkx2wks; alone or combined
HT29 colon cancer = test: HT-29 ectopic tumor model, TH-302 with 5FU; type: in vivo, nude mice; settings: 5-FU 50 mg/kg IV Q3Dx4; TH-302 150 mg/kg IP Q7Dx3; alone or combined
H460 NSCLC [5] = test: H460 ectopic lung cancer model, TH-302 with pemetrexed; type: in vivo, nude mice; settings: PMX 150 mg/kg 1/wkx2wks IP; TH-302 50 mg/kg 5/wkx2wks IP; alone or combined
Protocol: as §1, §2

H460 NSCLC cells = test: H460 ectopic xenograft, TH-302/pemetrexed dosing schedules; type: in vivo, nude mice; settings: single agent, TH-302 100 mg/kg ip Q7Dx2 or PMX 150 mg/kg ip Q7Dx2
Protocol: as §3, §4
In a study conducted substantially as described above except the cells implanted were H460 NSCLC cells and 1×10^6 cells were implanted and mice were randomized into separate groups when their tumors reached ˜100 mm^3 and the chemotherapeutic employed was pemetrexed at a dose of 150 mg/kg given once a week (Q7D) for two weeks IP and the TH-302 was given at 100 mg/kg given once a week (Q7D) for two weeks IP. […]

[6] = single agent, Phase I study; cited from earlier work
[7] = system: orthotopic prostate cancer PC-3 cells; test: Orthotopic PC-3 prostate cancer model, TH-302 with Taxol; type: in vivo, mice; settings: single agents: Taxol 12 mg/kg; TH-302 30 or 50 mg/kg
Protocol: TH-302 was tested as monotherapy and in combination with Taxol (paclitaxel) in animals bearing highly invasive and metastatic orthotopic prostate cancer PC-3 cells. Animals were randomized into 6 groups of 8 mice each and then treated either with vehicle; Taxol (12 mg/kg, IV, twice a week for 4 consecutive weeks); TH-302 (30 or 50 mg/kg, IP, once a day for 5 days a week for 2 consecutive weeks); or Taxol in combination with TH-302 (using the same single agent regimens).

## N.N.O=C([O-])C1(C(=O)[O-])CCC1.[Pt+2] [Carboplatin, carboplatin, reference compound]
H460 NSCLC [1]
  Days to 500 mm^3: 11.5 days
  Days to 1000 mm^3: 18.5 days
  T/C: 69.7%
  TGD500, Days (vs. vehicle): 2 days
  TGD1000, Days (vs. vehicle): 4.5 days
  TGI: 30.3%
  Tn (tumor volume on Day n): 855.6

## CC(=O)O[C@@]12CO[C@@H]1C[C@H](O)[C@@]1(C)C(=O)[C@H](O)C3=C(C)[C@@H](OC(=O)[C@H](O)[C@@H](NC(=O)OC(C)(C)C)c4ccccc4)C[C@@](O)([C@@H](OC(=O)c4ccccc4)[C@H]21)C3(C)C [Docetaxol, docetaxel, reference compound]
[2]
  Days to 500 mm^3: 18 days
  Days to 1000 mm^3: 27 days
  T/C: 57.6%
  TGD500, Days (vs. vehicle): 5 days
  TGD1000, Days (vs. vehicle): 7 days
  TGI: 42.4%
[2]; in mm³
  Tn (tumor volume on Day n): 681.36
[3]
  Days to 500 mm^3: 26 days
  T/C: 49.1%
  TGD500, Days (vs. vehicle): 10 days
  TGI: 50.9%
[3]; in mm³
  Tn (tumor volume on Day n): 563.22

## COc1cccc2c1C(=O)c1c(O)c3c(c(O)c1C2=O)C[C@@](O)(C(=O)CO)C[C@@H]3O[C@H]1C[C@H](N)[C@H](O)[C@H](C)O1 [Dox, doxorubicin, reference compound]
[4]
  Days to 500 mm^3: 24 days
  T/C: 5.1%
  TGD500, Days (vs. vehicle): 12 days
  TGI: 94.9%
  Tn (tumor volume on Day n): 154.79
Calu6 NSCLC
  Days to 500 mm^3: 27 days
  Days to 1000 mm^3: 35 days
  T/C: 67.7%
  TGD500, Days (vs. vehicle): 9 days
  TGD1000, Days (vs. vehicle): 4 days
  TGI: 32.3%
  Tn (tumor volume on Day n): 773.97

## O=c1[nH]cc(F)c(=O)[nH]1 [Formulation 5-FU, 5-fluorouracil, reference compound]
HT29 colon cancer
  Days to 500 mm^3: 31 days
  Days to 1000 mm^3: 43 days
  T/C: 43.1%
  TGD500, Days (vs. vehicle): 9 days
  TGD1000, Days (vs. vehicle): 11 days
  TGI: 56.9%
  Tn (tumor volume on Day n): 514.11

## Nc1nc2[nH]cc(CCc3ccc(C(=O)N[C@@H](CCC(=O)O)C(=O)O)cc3)c2c(=O)[nH]1 [PMX, pemetrexed, reference compound]
H460 NSCLC [5]
  Days to 500 mm^3: 19 days
  Days to 1000 mm^3: 29 days
  T/C: 70.2%
  TGD500, Days (vs. vehicle): 5 days
  TGD1000, Days (vs. vehicle): 5 days
  TGI: 29.8%
  Tn (tumor volume on Day n): 850.21
H460 NSCLC cells
  Days to 500 mm^3: 14 days
  Days to 1000 mm^3: 24 days
  T/C: 72.4%
  TGD500, Days (vs. vehicle): 2 days
  TGD1000, Days (vs. vehicle): 3 days
  TGI: 27.6%
  Tn (tumor volume on Day n): 817.45

## CS(=O)(=O)OCCN(CCBr)c1c(C(=O)NCCOP(=O)(O)O)cc([N+](=O)[O-])cc1[N+](=O)[O-] [PR104]
[6]
  Maximum tolerated dose (MTD) and recommended dose: 1,100 mg/m^2

## CC(=O)O[C@H]1C(=O)[C@@]2(C)[C@H]([C@H](OC(=O)c3ccccc3)[C@]3(O)C[C@H](OC(=O)[C@H](O)[C@@H](NC(=O)c4ccccc4)c4ccccc4)C(C)=C1C3(C)C)[C@]1(OC(C)=O)CO[C@@H]1C[C@@H]2O [Taxol, paclitaxel, reference compound]
[7]
  Primary tumor growth during the treatment period: significantly inhibited primary tumor growth

— patent US8946275B2, “Treatment of cancer using hypoxia activated prodrugs” (Threshold Pharmaceuticals, Inc., priority 2008, dated 2015)
